The values below come from PMC3790851, “Improved Mass Spectrometry Assay For Plasma Hepcidin: Detection and Characterization of a Novel Hepcidin Isoform” (PLoS ONE, 2013).

For data set [1] the following is noted: average, % of fresh, 10 IC patients and 5 controls; for Hepcidin level after one day at 4°C, EDTA plasma: CV (Hep-25/-24/-22/-20) 11/6/11/22.
Description: (§1) Samples were used for measurement of hepcidin between 4–7 hrs after blood drawing and/or pooled and/or stored in aliquots at various temperatures for prolonged periods of time.
(§2) Fresh samples were measured within 2–4 hrs hours after blood drawing and stored in aliquots at various temperatures for prolonged incubation.
(§3) Mass-to-charge (m/z) spectra were generated by using MALDI-TOF MS (Microflex LT, Bruker Daltonics). Spectra were analyzed by using Bruker Daltonics FlexAnalysis software. […] Total hepcidin concentration was defined as the sum of hepcidin-25, -24, -22, and -20 concentrations.
(§4) Using the novel heavy hepcidin-25 internal standard, we assessed changes in hepcidin-25 and the smaller isoforms in various samples containing various anticoagulants ex vivo at room temperature (RT), 4°C, −20°C and −80°C. More specifically, changes in hepcidin concentrations relative to those found in freshly collected samples were determined i) at storage at RT and 4°C on day 0 (fresh samples), 1 (14–22 hrs), 2, 3, and 7 days after sampling/storage, ii) at −20°C after 1 week, and after 1, 4 and 6 months of storage and iii) at −80°C at after 6 months of storage.
The nature of data set [2]: in vitro. The note with it: human.
Description: as §1, §2, §3, §4
Data set [3] in a line: Stability of hepcidin in plasma/serum at room temperature (WCX-TOF MS). The note with it: for Hepcidin level after one week at RT / Hepcidin level after one day at RT: % of fresh sample, human heparin plasma, 19 IC patients + 5 controls, results <1.0 nM removed, WCX-TOF MS, hepcidin-25^+40 internal standard, n = 24/15/13/18/11; for Hepcidin level after one week at RT: CV (Hep-25/-24/-22/-20/Total) 23/29/29/38/17; for Hepcidin level after one day at RT: CV (Hep-25/-24/-22/-20/Total) 8/21/14/25/5; for Hepcidin level after one week at RT, without protease inhibitors / Hepcidin level after one day at RT, without protease inhibitors: results <1 nM excluded; for Hepcidin level after one week at RT, without protease inhibitors: CV (Hep-25/-24/-22/-20) 30/31/23/41; for Hepcidin level after one day at RT, without protease inhibitors: CV (Hep-25/-24/-22/-20) 13/20/11/11; for remaining at 168 h / remaining at 1 day: human; for remaining at 168 h: read-out: Hepcidin level after one week at RT, with protease inhibitors; for remaining at 1 day: read-out: Hepcidin level after one day at RT, with protease inhibitors. Format: in vitro ADME, human. The method, then: Spectra were analyzed by using Bruker Daltonics FlexAnalysis software.
To assess the stability of hepcidin in serum and plasma matrices, we kept samples from intensive care patients (n = 20) and healthy controls (n = 5) at room temperature for 0–7 days followed by WCX-TOF MS analysis using the hepcidin-25^+40 internal standard. […] For the samples at day 1 and day 7, the mean decrease in hepcidin-25 for the 5 controls and 20 intensive care patients was 90% (CV, 8% ) and 55% (CV, 23%), respectively (Table 3).

Data set [4] addresses T1, green fluorescent protein (GFP)-fused human ferroportin (Homo sapiens, UniProt Q9NP59).
T1 construct: expressed in transfected cells
T1 sequence (Q9NP59 1-571): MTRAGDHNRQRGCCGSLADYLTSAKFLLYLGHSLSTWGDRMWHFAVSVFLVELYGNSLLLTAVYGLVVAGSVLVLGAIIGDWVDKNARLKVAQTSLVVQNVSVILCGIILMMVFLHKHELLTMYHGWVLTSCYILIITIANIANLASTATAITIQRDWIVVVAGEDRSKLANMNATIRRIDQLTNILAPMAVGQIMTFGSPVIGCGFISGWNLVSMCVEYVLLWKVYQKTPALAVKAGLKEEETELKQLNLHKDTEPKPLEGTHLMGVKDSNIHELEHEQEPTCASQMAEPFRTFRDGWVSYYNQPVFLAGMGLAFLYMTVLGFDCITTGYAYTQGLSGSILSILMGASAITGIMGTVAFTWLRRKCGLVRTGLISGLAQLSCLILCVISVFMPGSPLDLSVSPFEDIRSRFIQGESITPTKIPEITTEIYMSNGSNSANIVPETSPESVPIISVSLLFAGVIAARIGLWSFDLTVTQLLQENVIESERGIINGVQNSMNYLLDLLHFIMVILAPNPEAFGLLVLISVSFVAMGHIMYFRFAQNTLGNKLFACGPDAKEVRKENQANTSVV
The experiment in a line: Hepcidin bioactivity assay: GFP-ferroportin internalization and degradation. The data set is classed as cell-based. The following applies: for potency as inducer of ferroportin degradation: synthetic peptides, compared with hepcidin-25. The text has this:
A stable cell line engineered for inducible expression of green fluorescent protein (GFP)-fused human ferroportin was used as a test system to determine hepcidin-24 activity relative to hepcidin-25, 22 and 20. In this cell system, ferroportin internalization and degradation provided a means to quantify hepcidin activity. The assay was implemented basically as described by Nemeth et al., [33] except that fluorescence was quantified in triplicate wells on a microplate reader. To determine EC50 values for hepcidin-25 and hepcidin-24, a curve was fitted by nonlinear regression with a four parameter logistic equation using Prism v5 (GraphPad).
Figure 5 Hepcidin-mediated ferroportin internalization. Different concentrations of synthetic hepcidin-25, -24, -22 and -20 (indicated in nM on the horizontal axis) were added to the growth medium of a stable cell line that expresses green fluorescent protein-fused ferroportin (GFP-FPN). Hepcidin-mediated GFP-FPN internalization and degradation was quantified by measuring cellular fluorescence levels in arbitrary units.

For data set [5] the following is noted: average, % of fresh, 10 IC patients and 5 controls, n = 15/8/6/9, hepcidin-20 unreliable (additional peak); for Hepcidin level after one week at -20°C, EDTA plasma: CV (Hep-25/-24/-22/-20) 11/12/11/28.
Description: as §1, §2, §3, §4
Data set [6] in a line: in vitro. The following applies: human. The source holds these as a separate data set.
Description: as §1, §2, §3, §4
[7] abbreviates: results <1.0 nM deleted, n = 15/8/6/9.
Where [8] appears, read: average, % of fresh, 7 days, heparin plasma, 10 IC patients, n = 10/8/7/8.
Setting [9] is: average, % of fresh, heparin plasma, 10 IC patients, n = 10/8/7/8.
The mark [10] stands for this setting: average, % of fresh, 7 days, heparin plasma, 10 IC patients, Complete Mini (Roche), CV (Hep-25/-24/-22/-20) 25/35/9/25, n = 10/8/7/8.
Where [11] appears, read: average, % of fresh, heparin plasma, 10 IC patients, Complete Mini (Roche), 1 tablet in 200 µL PBS, 20 µL per 1 ml plasma, CV (Hep-25/-24/-22/-20) 8/30/4/14, n = 10/8/7/8.

Structures are written as SMILES. Bridge positions count the residues as written; N and C are the ends. Peptide text beside a SMILES is read from it.
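Throughout, for Hepcidin level after one month at -20°C, EDTA plasma: hepcidin in stored plasma or serum quantified by MALDI-TOF MS against a heavy hepcidin-25 internal standard, expressed relative to concentrations in freshly collected samples.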
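Throughout, for Hepcidin level after one week at -20°C, EDTA plasma: hepcidin in stored plasma or serum quantified by MALDI-TOF MS against a heavy hepcidin-25 internal standard, expressed relative to concentrations in freshly collected samples.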

Consider `CC[C@H](C)[C@H](N)C(=O)N[C@H]1CSSC[C@@H](C(=O)N[C@@H](CCCCN)C(=O)N[C@H](C(=O)O)[C@@H](C)O)NC(=O)[C@@H]2CSSC[C@H](NC(=O)[C@H](Cc3ccccc3)NC(=O)[C@H]([C@@H](C)CC)NC1=O)C(=O)N[C@H]1CSSC[C@H](NC(=O)[C@H](CCCCN)NC(=O)[C@H](CO)NC(=O)[C@H](CCCNC(=N)N)NC(=O)[C@H](Cc3c[nH]cn3)NC(=O)[C@@H]3CSSC[C@H](NC(=O)CNC1=O)C(=O)N3)C(=O)NCC(=O)N[C@@H](CCSC)C(=O)N2` [Hepcidin-20] (H-ICIFCCGCCHRSKCGMCCKT-OH; disulfide 2-18, 5-17, 6-14, 8-9 (inferred); N-terminus and C-terminus assumed), for which the “Hepcidin level after one day at 4°C, EDTA plasma” value in data set [1] (setting [7]) is listed as 94%. Moreover, the “Hepcidin level after one week at 4°C, heparin plasma” value in data set [1] (7 days, CV (Hep-25/-24/-22/-20) 5/8/8/21, n = 15/7/6/10) was 114%. Moreover, the “Hepcidin level after one week at 4°C, EDTA plasma” value in data set [1] (7 days, CV (Hep-25/-24/-22/-20) 9/8/18/21, n = 15/8/6/9, hepcidin-20 in stored EDTA plasma unreliable (additional peak)) is listed as 165%. The remaining at 672 h in the data set “in vitro [2]” (heparin plasma) turned out to be 102%. In addition, the “Hepcidin level after one week at RT” value in data set [3] (average, 7 days) is on record as 138%. Moreover, in data set [3] (average), the “Hepcidin level after one day at RT” value was found to be 115%. Also, the “Hepcidin level after one week at RT, without protease inhibitors” value in data set [3] (setting [8]) amounted to 164%. In addition, the “Hepcidin level after one day at RT, without protease inhibitors” value in data set [3] (setting [9]) turned out to be 141%. For the same molecule, the “level of isoform emerging in control samples at RT” value in data set [3] (heparin plasma, healthy controls, 0–7 days) is recorded as “below 1 nM”. In addition, the remaining at 168 h in data set [3] (setting [10]) worked out at 114%. In addition, the remaining at 1 day in data set [3] (setting [11]) was determined as 118%. Also, in data set [4], the “activity relative to hepcidin-24 (fold lower)” value was “at least 10 fold” and the “potency as inducer of ferroportin degradation” value (from here on “potency as inducer”) was “significantly less potent inducer of ferroportin degradation than hepcidin-25”. Moreover, the “Hepcidin level after one month at -20°C, EDTA plasma” value in data set [5] (4 weeks, CV (Hep-25/-24/-22/-20) 9/11/19/40) is 210%. The “Hepcidin level after one week at -20°C, EDTA plasma” value in data set [5] was 183%.
As to `CC[C@H](C)[C@@H]1NC(=O)[C@@H](NC(=O)[C@@H](NC(=O)[C@@H]2CCCN2C(=O)[C@@H](N)Cc2ccccc2)[C@@H](C)CC)CSSC[C@@H](C(=O)N[C@@H](CCCCN)C(=O)N[C@H](C(=O)O)[C@@H](C)O)NC(=O)[C@@H]2CSSC[C@H](NC(=O)[C@H](Cc3ccccc3)NC1=O)C(=O)N[C@H]1CSSC[C@H](NC(=O)[C@H](CCCCN)NC(=O)[C@H](CO)NC(=O)[C@H](CCCNC(=N)N)NC(=O)[C@H](Cc3c[nH]cn3)NC(=O)[C@@H]3CSSC[C@H](NC(=O)CNC1=O)C(=O)N3)C(=O)NCC(=O)N[C@@H](CCSC)C(=O)N2` [Hepcidin-22] (H-FPICIFCCGCCHRSKCGMCCKT-OH; disulfide 4-20, 7-19, 8-16, 10-11), the remaining at 168 h turned out to be 106% in “in vitro [6]” (EDTA plasma), 96% in “in vitro [6]” (heparin plasma) and 117% in data set [3] (setting [10]). Besides, the “Hepcidin level after one day at 4°C, heparin plasma” value in data set [1] (results <1.0 nM deleted, CV (Hep-25/-24/-22/-20) 7/5/13/20, n = 15/7/6/10) stood at 104%. Further, the “Hepcidin level after one day at 4°C, EDTA plasma” value in data set [1] (setting [7]) worked out at 104%. Also, in “in vitro [2]” (EDTA plasma), the remaining at 1 week was 98%. Further, the remaining at 672 h in “in vitro [2]” (EDTA plasma) amounted to 96%; in the data set “in vitro [2]” (heparin plasma), 89%. Moreover, the “Hepcidin level after one week at RT” value in data set [3] (average, 7 days) turned out to be 150%. The “Hepcidin level after one day at RT” value in data set [3] (average) turned out to be 127%. Besides, the “Hepcidin level after one week at RT, without protease inhibitors” value in data set [3] (setting [8]) was 160%. The “Hepcidin level after one day at RT, without protease inhibitors” value in data set [3] (setting [9]) is reported as 135%. The remaining at 1 day in data set [3] (setting [11]) was 105%. Also, the “activity relative to hepcidin-24 (fold lower)” value in data set [4] is recorded as “at least 10 fold”. For the same molecule, the “potency as inducer” value in data set [4] is reported as “significantly less potent inducer of ferroportin degradation than hepcidin-25”.
For the molecule `CC[C@H](C)[C@@H]1NC(=O)[C@@H](NC(=O)[C@@H](NC(=O)[C@@H]2CCCN2C(=O)[C@H](Cc2ccccc2)NC(=O)[C@H](Cc2c[nH]cn2)NC(=O)[C@@H](N)[C@@H](C)O)[C@@H](C)CC)CSSC[C@@H](C(=O)N[C@@H](CCCCN)C(=O)N[C@H](C(=O)O)[C@@H](C)O)NC(=O)[C@@H]2CSSC[C@H](NC(=O)[C@H](Cc3ccccc3)NC1=O)C(=O)N[C@H]1CSSC[C@H](NC(=O)[C@H](CCCCN)NC(=O)[C@H](CO)NC(=O)[C@H](CCCNC(=N)N)NC(=O)[C@H](Cc3c[nH]cn3)NC(=O)[C@@H]3CSSC[C@H](NC(=O)CNC1=O)C(=O)N3)C(=O)NCC(=O)N[C@@H](CCSC)C(=O)N2` [Hepcidin-24] (H-THFPICIFCCGCCHRSKCGMCCKT-OH; disulfide 6-22, 9-21, 10-18, 12-13), the remaining at 168 h was found to be 113% in the data set “in vitro [6]” (EDTA plasma) and 106% in the data set “in vitro [6]” (heparin plasma). Moreover, the remaining at 672 h is 91% in the data set “in vitro [2]” (EDTA plasma) and 114% in the data set “in vitro [2]” (heparin plasma). The “Hepcidin level after one week at RT” value in data set [3] (average, 7 days) was 104%. Besides, the “Hepcidin level after one day at RT” value in data set [3] (average) came out at 120%. The “Hepcidin level after one week at RT, with protease inhibitors” value in data set [3] (setting [10]) turned out to be 133%. The “Hepcidin level after one week at RT, without protease inhibitors” value in data set [3] (setting [8]) is recorded as 116%. For the same molecule, the “Hepcidin level after one day at RT, with protease inhibitors” value in data set [3] (setting [11]) stood at 122%. Besides, in data set [3] (setting [9]), the “Hepcidin level after one day at RT, without protease inhibitors” value stood at 128%. This molecule also yielded an EC50 in data set [4] of 192 nM. For the same molecule, in data set [4] (relative to hepcidin-25), the “activity relative to hepcidin-25 (fold lower)” value amounted to 10 fold. Also, in data set [4], the “potency as inducer” value is “significantly less potent inducer of ferroportin degradation than hepcidin-25”. The “Hepcidin level after one week at -20°C, EDTA plasma” value in data set [5] is 96%.
